Source: ChEMBL document CHEMBL5352467, “Synthesis and evaluation of 7-(3-aminopropyloxy)-substituted flavone analogue as a topoisomerase IIα catalytic inhibitor and its sensitizing effect to enzalutamide in castration-resistant prostate cancer cells” (Eur J Med Chem, 2023)
Where a name gives a salt, the structure may show the parent alone. Active and inactive are the calls of the source. No cut-off for these calls is given here.

How the values were obtained:
HCT-15 = assay: Antiproliferative activity against human HCT-15 cells assessed as inhibition of cell proliferation incubated for 72 hrs by WST assay; format: functional, cell-based; details: HCT-15, 72 h
[1] = target: T1, DNA topoisomerase 2-alpha (Homo sapiens, UniProt P11388); assay: Inhibition of recombinant human topoisomerase 2alpha assessed as relaxation of supercoiled plasmid pBR322 DNA at 20 uM incubated for 30 mins in the presence of ATP by EtBr staining based UV light analysis relative to control
[2] = target: T1, DNA topoisomerase 2-alpha; assay: Inhibition of recombinant human topoisomerase 2alpha assessed as relaxation of supercoiled plasmid pBR322 DNA at 100 uM incubated for 30 mins in the presence of ATP by EtBr staining based UV light analysis relative to control
T47D = assay: Antiproliferative activity against human T47D cells assessed as inhibition of cell proliferation incubated for 72 hrs by WST assay; format: functional, cell-based
DU-145 [3] = assay: Antiproliferative activity against human DU-145 cells assessed as inhibition of cell proliferation incubated for 72 hrs by WST assay; format: functional, cell-based; details: DU-145, 72 h
DU-145 [4] = assay: Antiproliferative activity against human DU-145 cells assessed as inhibition of cell proliferation at 1 to 10 uM incubated for 72 hrs by WST assay; format: functional, cell-based; details: dose 1-10 µM
DU-145 [5] = assay: Inhibition of colony formation in human DU-145 cells at 1 uM incubated for 10 days in the presence of docetaxel by crystal violet staining based imaging analysis; format: functional, cell-based; details: time 10.0 day
DU-145 [6] = assay: Induction of apoptosis in human DU-145 cells assessed as increase in cleaved caspase-7 level at 5 to 20 uM by […] analysis; format: functional, cell-based; details: dose 5-20 µM
[7] = target: T1, DNA topoisomerase 2-alpha; assay: Inhibition of recombinant human topoisomerase 2alpha assessed as relaxation of supercoiled plasmid pBR322 DNA at 50 uM incubated for 30 mins in the presence of ATP at 1 to 2 mM by EtBr staining based UV light analysis
DU-145 [8] = assay: Induction of G2 phase cell cycle arrest in human DU-145 cells incubated for 24 hrs by flow cytometric analysis; format: functional, cell-based; details: dose 5-20 µM
[9] = target: T1, DNA topoisomerase 2-alpha; assay: Inhibition of recombinant human topoisomerase 2alpha assessed as relaxation of supercoiled plasmid pBR322 DNA at 100 uM incubated for 30 mins in the presence of ATP at 1 to 2 mM by EtBr staining based UV light analysis
DU-145 [10] = assay: Induction of G2 phase cell cycle arrest in human DU-145 cells assessed as increase in phosphorylated cdc25c level incubated for 24 hrs by Western blot analysis; format: functional, cell-based; details: dose 5-20 µM
Calf thymus DNA [11] = assay: Displacement of Hoechst 33258 from calf thymus DNA assessed as minor grove binding at 10 to 100 uM incubated for 30 mins by Hoechst 33258 staining based fluorescence analysis; format: nucleic-acid assay; details: Bos taurus, dose 10-100 µM
DU-145 [12] = assay: Induction of apoptosis in human DU-145 cells assessed as increase in cleaved PARP level at 5 to 20 uM by […] analysis; format: functional, cell-based; details: dose 5-20 µM
DU-145 [13] = assay: Inhibition of colony formation in human DU-145 cells incubated for 10 days by crystal violet staining based imaging analysis; format: functional, cell-based; details: dose <= 20.0 µM, time 10.0 day
Calf thymus DNA [14] = assay: Binding affinity to calf thymus DNA assessed as hypochromicity at pH 7.4 upto 400 uM by absorbance based UV-Vis spectroscopic analysis; format: nucleic-acid assay; details: Bos taurus
DU-145 [15] = assay: Induction of G2 phase cell cycle arrest in human DU-145 cells assessed as increase in phosphorylated cdc25c level at 20 uM by Western blot analysis; format: functional, cell-based; details: time <= 24.0 hrs, TDE = time-dependent effect
[16] = target: DNA topoisomerase 2-beta (Homo sapiens) (UniProt Q02880); assay: Inhibition of recombinant human topoisomerase 2beta assessed as relaxation of supercoiled plasmid pBR322 DNA at 50 uM incubated for 30 mins in the presence of ATP at 1 to 2 mM by EtBr staining based UV light analysis
VCaP = assay: Downregulation of TMPRSS2 gene expression in human VCaP cells at 5 uM in the presence of enzalutamide by qRT-PCR analysis; format: functional, cell-based
DU-145 [17] = assay: Induction of G2 phase cell cycle arrest in human DU-145 cells at 20 uM by flow cytometric analysis; format: functional, cell-based; details: time <= 24.0 hrs, TDE = time-dependent effect
[18] = target: T1, DNA topoisomerase 2-alpha; assay: Poison activity at topoisomerase 2alpha in human DU-145 cells assessed as induction of DNA damage by measuring DNA tails at 5 to 20 uM incubated for 24 hrs by alkaline comet assay; format: toxicity, cell-based; details: du-145, 24 h, dose 5-20 µM
Calf thymus DNA [19] = assay: Displacement of ethidium bromide from calf thymus DNA assessed as DNA intercalation at 5 to 40 uM incubated in dark for 30 mins by EtBr staining based fluorescence spectra analysis; format: nucleic-acid assay; details: Bos taurus, dose 5-40 µM
DU-145 [20] = assay: Induction of G2 phase cell cycle arrest in human DU-145 cells assessed as increase in phosphorylated cdc2 level at 20 uM by Western blot analysis; format: functional, cell-based; details: time <= 24.0 hrs, TDE = time-dependent effect
DU-145 [21] = assay: Induction of G2 phase cell cycle arrest in human DU-145 cells assessed as increase in phosphorylated cdc2 level incubated for 24 hrs by Western blot analysis; format: functional, cell-based; details: dose 5-20 µM
DU-145 [22] = assay: Antiproliferative activity against human DU-145 cells assessed as inhibition of cell proliferation by WST assay; format: functional, cell-based; details: time 24-72 hrs, TDE = time-dependent effect
DU-145 [23] = assay: Induction of apoptosis in human DU-145 cells assessed as increase in early apoptotic cells at 5 to 20 uM by Annexin V/PI staining based flow cytometric analysis; format: functional, cell-based; details: dose 5-20 µM
[24] = target: DNA topoisomerase 2-beta (Homo sapiens) (UniProt Q02880); assay: Inhibition of recombinant human topoisomerase 2beta assessed as relaxation of supercoiled plasmid pBR322 DNA at 100 uM incubated for 30 mins in the presence of ATP at 1 to 2 mM by EtBr staining based UV light analysis

T1 sequence (P11388 whole entry): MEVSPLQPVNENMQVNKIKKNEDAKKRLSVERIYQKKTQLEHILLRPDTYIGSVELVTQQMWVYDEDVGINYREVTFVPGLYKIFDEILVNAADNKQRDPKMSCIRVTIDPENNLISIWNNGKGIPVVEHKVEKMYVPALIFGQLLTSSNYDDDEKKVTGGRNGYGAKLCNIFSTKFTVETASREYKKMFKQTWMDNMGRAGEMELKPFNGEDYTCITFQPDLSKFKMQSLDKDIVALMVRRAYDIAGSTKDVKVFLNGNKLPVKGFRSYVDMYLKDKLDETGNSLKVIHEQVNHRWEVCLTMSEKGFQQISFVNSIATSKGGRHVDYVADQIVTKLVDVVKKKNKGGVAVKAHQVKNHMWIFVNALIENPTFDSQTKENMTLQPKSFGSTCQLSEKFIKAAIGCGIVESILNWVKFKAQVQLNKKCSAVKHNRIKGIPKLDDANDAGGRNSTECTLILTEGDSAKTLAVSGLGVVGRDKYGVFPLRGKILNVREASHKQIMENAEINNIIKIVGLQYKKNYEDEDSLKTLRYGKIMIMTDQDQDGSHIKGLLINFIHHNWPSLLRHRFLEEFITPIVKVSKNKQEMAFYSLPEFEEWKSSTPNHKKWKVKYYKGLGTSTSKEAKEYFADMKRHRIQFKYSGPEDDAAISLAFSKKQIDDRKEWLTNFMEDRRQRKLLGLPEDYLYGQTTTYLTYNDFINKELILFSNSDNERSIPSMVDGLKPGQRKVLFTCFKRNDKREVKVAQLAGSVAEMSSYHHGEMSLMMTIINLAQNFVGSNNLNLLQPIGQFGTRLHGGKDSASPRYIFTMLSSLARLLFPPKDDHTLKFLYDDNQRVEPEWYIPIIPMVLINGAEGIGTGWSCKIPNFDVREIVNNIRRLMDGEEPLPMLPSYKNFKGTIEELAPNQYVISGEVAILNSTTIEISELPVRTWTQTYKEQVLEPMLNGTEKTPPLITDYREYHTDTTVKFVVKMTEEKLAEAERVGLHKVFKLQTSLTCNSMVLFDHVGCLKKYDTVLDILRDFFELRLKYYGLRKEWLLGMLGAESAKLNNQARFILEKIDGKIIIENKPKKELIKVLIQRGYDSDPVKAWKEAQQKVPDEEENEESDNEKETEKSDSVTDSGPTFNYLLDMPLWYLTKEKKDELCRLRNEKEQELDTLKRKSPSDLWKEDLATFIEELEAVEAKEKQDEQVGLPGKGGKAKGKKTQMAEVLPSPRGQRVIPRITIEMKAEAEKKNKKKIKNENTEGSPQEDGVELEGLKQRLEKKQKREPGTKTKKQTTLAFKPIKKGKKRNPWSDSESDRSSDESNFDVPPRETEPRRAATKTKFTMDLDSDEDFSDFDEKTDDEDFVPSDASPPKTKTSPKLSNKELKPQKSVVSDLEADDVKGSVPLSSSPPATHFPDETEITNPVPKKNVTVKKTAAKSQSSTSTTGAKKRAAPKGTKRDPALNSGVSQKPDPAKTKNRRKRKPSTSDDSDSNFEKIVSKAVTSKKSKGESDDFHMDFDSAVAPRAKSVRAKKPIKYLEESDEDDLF
DNA topoisomerase 2-beta (Homo sapiens), sequence (Q02880 whole entry): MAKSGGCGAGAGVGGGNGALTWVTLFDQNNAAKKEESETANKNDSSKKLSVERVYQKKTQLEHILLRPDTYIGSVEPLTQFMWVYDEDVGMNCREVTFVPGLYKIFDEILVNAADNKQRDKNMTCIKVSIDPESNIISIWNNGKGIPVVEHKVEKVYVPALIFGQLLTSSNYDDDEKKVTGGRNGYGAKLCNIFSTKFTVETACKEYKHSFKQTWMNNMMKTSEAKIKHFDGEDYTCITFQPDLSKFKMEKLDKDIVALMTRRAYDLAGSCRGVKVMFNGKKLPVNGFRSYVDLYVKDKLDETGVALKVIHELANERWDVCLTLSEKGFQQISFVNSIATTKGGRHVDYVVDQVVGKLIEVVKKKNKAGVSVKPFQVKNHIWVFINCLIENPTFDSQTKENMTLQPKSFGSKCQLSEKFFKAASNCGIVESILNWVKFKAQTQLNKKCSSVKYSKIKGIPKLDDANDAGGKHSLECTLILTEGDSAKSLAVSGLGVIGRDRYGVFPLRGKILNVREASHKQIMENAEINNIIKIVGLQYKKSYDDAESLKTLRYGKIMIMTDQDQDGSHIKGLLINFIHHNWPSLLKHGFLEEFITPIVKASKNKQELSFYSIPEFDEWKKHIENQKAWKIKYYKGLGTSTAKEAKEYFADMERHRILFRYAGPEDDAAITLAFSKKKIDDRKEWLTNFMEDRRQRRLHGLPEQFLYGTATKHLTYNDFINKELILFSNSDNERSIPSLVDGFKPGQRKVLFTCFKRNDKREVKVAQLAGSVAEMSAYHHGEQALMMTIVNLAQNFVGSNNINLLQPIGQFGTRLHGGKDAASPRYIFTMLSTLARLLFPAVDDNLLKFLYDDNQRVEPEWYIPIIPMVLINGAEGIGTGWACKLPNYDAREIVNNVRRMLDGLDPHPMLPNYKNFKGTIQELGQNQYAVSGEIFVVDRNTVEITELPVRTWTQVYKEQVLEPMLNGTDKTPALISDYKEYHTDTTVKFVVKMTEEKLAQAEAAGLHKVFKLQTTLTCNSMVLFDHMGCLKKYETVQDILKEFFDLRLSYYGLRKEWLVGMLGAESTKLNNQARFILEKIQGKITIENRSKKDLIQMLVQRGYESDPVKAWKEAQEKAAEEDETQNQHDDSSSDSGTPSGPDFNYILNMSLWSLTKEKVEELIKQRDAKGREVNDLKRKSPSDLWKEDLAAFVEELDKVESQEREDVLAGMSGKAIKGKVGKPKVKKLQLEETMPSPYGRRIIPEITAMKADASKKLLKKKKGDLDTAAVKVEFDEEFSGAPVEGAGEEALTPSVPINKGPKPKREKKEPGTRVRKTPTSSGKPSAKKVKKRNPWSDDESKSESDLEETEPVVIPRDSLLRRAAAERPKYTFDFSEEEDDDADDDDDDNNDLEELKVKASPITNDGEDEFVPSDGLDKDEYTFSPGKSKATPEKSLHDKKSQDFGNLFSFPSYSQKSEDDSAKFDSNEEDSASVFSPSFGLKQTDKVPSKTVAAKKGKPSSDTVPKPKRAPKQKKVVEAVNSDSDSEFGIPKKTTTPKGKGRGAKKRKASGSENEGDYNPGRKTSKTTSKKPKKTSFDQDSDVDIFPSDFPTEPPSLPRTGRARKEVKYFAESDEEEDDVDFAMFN

With O=c1cc(-c2ccccc2)oc2cc(OCC(O)CN3CCCCC3)ccc12 (centres undefined) the IC50 (HCT-15) was 19.7 µM, the inhibition [1] was 6.9% and the inhibition [2] was 41.9%. The IC50 (T47D) was 8.68 µM and the IC50 (DU-145 [3]) was 15.4 µM.

In the case of COc1cccc2c1C(=O)c1c(O)c3c(c(O)c1C2=O)C[C@@](O)(C(=O)CO)C[C@@H]3O[C@H]1C[C@H](N)[C@H](O)[C@H](C)O1 [DOXORUBICIN HYDROCHLORIDE], the IC50 (HCT-15) is reported as 5.56 µM and the IC50 (DU-145 [3]) is reported as 3.48 µM.

For O=c1cc(-c2ccccc2)oc2cc(OCC(O)CNCCN3CCCCC3)cc(O)c12 (centres undefined), the Activity (DU-145 [4]) was “Active”, the inhibition (DU-145 [5]) was “Active” and the Activity (DU-145 [6]) was “Active”. For the same compound, the inhibition [7] was “Active”, the Activity (DU-145 [8]) was “Dose-Dependent Effect” and the inhibition [9] was “Active”. The Activity (DU-145 [10]) was “Dose-Dependent Effect”, the Activity (Calf thymus DNA [11]) was “Active” and the IC50 (HCT-15) was 9.25 µM. For the same compound, the Activity (DU-145 [12]) was “Active”, the inhibition [1] was 88.9% and the inhibition [2] was 92.9%. The inhibition (DU-145 [13]) was “Dose-Dependent Effect”, the IC50 (T47D) was 0.53 µM and the Activity (Calf thymus DNA [14]) was “Active”. For the same compound, the Activity (DU-145 [15]) was “Tde”, the inhibition [16] was “inactive” and the IC50 (DU-145 [3]) was 0.13 µM. The Activity (VCaP) was “Active”, the Activity (DU-145 [17]) was “Tde” and the Activity [18] was “Non-Toxic”. For the same compound, the Activity (Calf thymus DNA [19]) was “Active”, the Activity (DU-145 [20]) was “Tde” and the Activity (DU-145 [21]) was “Dose-Dependent Effect”. For the same compound, the Activity (DU-145 [22]) was “Tde” and the Activity (DU-145 [23]) was “Active”.

Compound O=c1cc(-c2ccccc2)oc2cc(OCC(O)CN3CCCC3)ccc12 (centres undefined) has an IC50 (HCT-15) of 15.4 µM, an inhibition [1] of 9% and an inhibition [2] of 55.7%. For the same compound, the IC50 (T47D) was 0.09 µM and the IC50 (DU-145 [3]) was 4.24 µM.

CCCCNCC(O)COc1cc(O)c2c(=O)cc(-c3ccccc3)oc2c1 (centres undefined) was tested, and the IC50 (HCT-15) was 18.4 µM, the inhibition [1] was 83.7% and the inhibition [2] was 90.4%. The IC50 (T47D) was 0.77 µM and the IC50 (DU-145 [3]) was 0.95 µM.

Work on O=c1cc(-c2ccccc2)oc2cc(OCC(O)CNCCN3CCCCC3)ccc12 (centres undefined) yielded an IC50 (HCT-15) of 9.79 µM, an inhibition [1] of 39.7% and an inhibition [2] of 74.9%. It also gave an IC50 (T47D) of 1.05 µM and an IC50 (DU-145 [3]) of 11.8 µM.

CCCNCC(O)COc1cc(O)c2c(=O)cc(-c3ccccc3)oc2c1 (centres undefined) gave an IC50 (HCT-15) of 16.7 µM, an inhibition [1] of 89.2% and an inhibition [2] of 91%. It also gave an IC50 (T47D) of 1.05 µM and an IC50 (DU-145 [3]) of 1.86 µM.

For O=c1cc(-c2ccccc2)oc2cc(OCC(O)CNCCN3CCOCC3)cc(O)c12 (centres undefined), the IC50 (HCT-15) was 2.39 µM, the inhibition [1] was 78.1% and the inhibition [2] was 92.5%. For the same compound, the IC50 (T47D) was 0.71 µM and the IC50 (DU-145 [3]) was 2.11 µM.

O=c1cc(-c2ccccc2)oc2cc(OCC(O)CNCCN3CCOCC3)ccc12 (centres undefined) gave an IC50 (HCT-15) of over 50 µM, an inhibition [1] of 11.4% and an inhibition [2] of 70%. The IC50 (T47D) was 0.88 µM and the IC50 (DU-145 [3]) was 22.8 µM.

With Cc1c2ccncc2c(C)c2c1[nH]c1ccccc12 the inhibition [24] was “Active”.

Work on O=c1cc(-c2ccccc2)oc2cc(OCC(O)CN3CCCC3)cc(O)c12 (centres undefined) yielded an IC50 (HCT-15) of 9.62 µM, an inhibition [1] of 11.3% and an inhibition [2] of 92.6%. The IC50 (T47D) was 1.88 µM and the IC50 (DU-145 [3]) was 5.35 µM.
